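Results reflect a 48-hour exposure of cells in 96-well plates to compound at five concentrations. Abbreviation: GI50, concentration required for 50% inhibition of growth.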 Calls of active or inactive are those of the source. Cut-off read from the data, not from the text of the source: active = GI50 up to about 1.1 µM and inactive = higher.
Tests used:
Assay in all cases: DTP human tumour cell line panel, 48 h
A498 = test system: A498
BT-549 = test system: BT-549
CAKI-1 = test system: CAKI-1
COLO 205 = test system: COLO 205
DU-145 = test system: DU-145
HCT-116 = test system: HCT-116
HCT-15 = test system: HCT-15
HOP-62 = test system: HOP-62
HT-29 = test system: HT-29
Hs-578T = test system: Hs-578T
NCI-H226 = test system: NCI-H226
NCI-H460 = test system: NCI-H460
PC-3 = test system: PC-3
SF-268 = test system: SF-268
SF-539 = test system: SF-539
SK-MEL-2 = test system: SK-MEL-2
SW-620 = test system: SW-620
T47D = test system: T47D
HL-60 = test system: HL-60
SR = test system: SR

SMILES | GI50 (A498) | GI50 (BT-549) | GI50 (CAKI-1) | GI50 (COLO 205) | GI50 (DU-145) | GI50 (HCT-116) | GI50 (HCT-15) [µM] | GI50 (HOP-62) | GI50 (HT-29) | GI50 (Hs-578T) | GI50 (NCI-H226) | GI50 (NCI-H460) | GI50 (PC-3) | GI50 (SF-268) | GI50 (SF-539) | GI50 (SK-MEL-2) | GI50 (SW-620) | GI50 (T47D) | GI50 (HL-60) | GI50 (SR)
N=C(N)SCC(=O)O | > 100 µM (inactive) | > 100 µM (inactive) | > 100 µM (inactive) | > 100 µM (inactive) | > 100 µM (inactive) | > 100 µM (inactive) | > 100 | > 100 µM (inactive) | > 100 µM (inactive) | > 100 µM (inactive) | > 100 µM (inactive) | > 100 µM (inactive) | > 100 µM (inactive) | > 100 µM (inactive) | > 100 µM (inactive) | > 100 µM (inactive) | > 100 µM (inactive) | > 100 µM (inactive) |  | 
C/C(=N\NS(=O)(=O)c1ccc(C)cc1)P(=O)(O)O | > 100 µM (inactive) | > 100 µM (inactive) | > 100 µM (inactive) | > 100 µM (inactive) | > 100 µM (inactive) | > 100 µM (inactive) | > 100 | > 100 µM (inactive) | > 100 µM (inactive) | > 100 µM (inactive) | > 100 µM (inactive) | > 100 µM (inactive) | > 100 µM (inactive) | > 100 µM (inactive) | > 100 µM (inactive) | > 100 µM (inactive) | > 100 µM (inactive) | > 100 µM (inactive) |  | 
COc1ccc2[nH]cc(CCNC(=O)[C@H](Cc3ccccc3)NC(=O)[C@@H](NCC(F)(F)F)C(C)C)c2c1 |  | 21.4 µM (inactive) |  | 17.9 µM (inactive) | 18.3 µM (inactive) | 16.5 µM (inactive) | 21.4 | 14.8 µM (inactive) | 16.7 µM (inactive) | 18.6 µM (inactive) | 21.4 µM (inactive) | 20.1 µM (inactive) | 18.2 µM (inactive) |  | 19 µM (inactive) | 19.4 µM (inactive) | 28.5 µM (inactive) |  | 20.1 µM (inactive) | 36.2 µM (inactive)
COc1ccccc1CNCCCCCNCCCCCCCCCCNCCCCCNCc1ccccc1OC |  | 23.5 µM (inactive) |  | 34.3 µM (inactive) | 18 µM (inactive) | 11.8 µM (inactive) | > 100 | 16 µM (inactive) | 96.6 µM (inactive) | 1.05 µM (active) | 18.1 µM (inactive) | 13.8 µM (inactive) |  | 39.4 µM (inactive) | 8.65 µM (inactive) | 18.4 µM (inactive) | 34.4 µM (inactive) | 54.7 µM (inactive) | 21.8 µM (inactive) | 14.9 µM (inactive)
O=C(NNc1ccc([N+](=O)[O-])cc1[N+](=O)[O-])/C(O)=C\C(=O)c1ccccc1 | 28.9 µM (inactive) | 22.2 µM (inactive) | 21.1 µM (inactive) | 18.4 µM (inactive) | 16.9 µM (inactive) | 14.4 µM (inactive) | 16.5 | 16.3 µM (inactive) |  |  | 21.2 µM (inactive) | 19 µM (inactive) | 20.3 µM (inactive) | 17.7 µM (inactive) | 15.4 µM (inactive) | 27.1 µM (inactive) | 16.6 µM (inactive) | 15.6 µM (inactive) |  | 19.9 µM (inactive)
COC(=O)/C=C1/OC(c2ccccc2)=C(Br)C1=O | 70.8 µM (inactive) | 18.7 µM (inactive) | 24.8 µM (inactive) | > 100 µM (inactive) | 87.1 µM (inactive) | 17.9 µM (inactive) | 10.6 | > 100 µM (inactive) | 20.1 µM (inactive) |  | 68.9 µM (inactive) | 35.9 µM (inactive) | 18.9 µM (inactive) | 49.4 µM (inactive) | 45.9 µM (inactive) |  | 18.4 µM (inactive) | 45.3 µM (inactive) | 35.2 µM (inactive) | 20.8 µM (inactive)
CC(C)C(N)C(=O)NC(CCC(=O)NCCCCC(N)C(=O)NCCCNc1ccc([N+](=O)[O-])c2[nH]c3ccccc3c(=O)c12)C(N)=O (configuration not stated) | 59 µM (inactive) | 13.7 µM (inactive) | > 100 µM (inactive) | 68.9 µM (inactive) | > 100 µM (inactive) | 21.7 µM (inactive) | 41.2 | 92.3 µM (inactive) |  |  | 50.9 µM (inactive) | 12.5 µM (inactive) | 56.6 µM (inactive) | 58.7 µM (inactive) |  | 91.6 µM (inactive) | 41.6 µM (inactive) | > 100 µM (inactive) |  | 
C[N+](C)(CCNC(=O)c1cccc2cc3ccccc3nc12)Cc1ccc([N+](=O)[O-])s1 | > 25 µM (inactive) | > 25 µM (inactive) | 14.9 µM (inactive) | > 25 µM (inactive) | > 25 µM (inactive) | > 25 µM (inactive) | > 25 | > 25 µM (inactive) | > 25 µM (inactive) | > 25 µM (inactive) | > 25 µM (inactive) |  | > 25 µM (inactive) | > 25 µM (inactive) |  | > 25 µM (inactive) | > 25 µM (inactive) | > 25 µM (inactive) | 10.9 µM (inactive) | 
NCCSc1nc2ccccc2s1 | 32.9 µM (inactive) | 31.5 µM (inactive) | 38.5 µM (inactive) | > 100 µM (inactive) | 33.9 µM (inactive) | 33.7 µM (inactive) | 42.9 | 23.8 µM (inactive) | 34 µM (inactive) | 32.1 µM (inactive) | 36.6 µM (inactive) | 36.1 µM (inactive) | 44 µM (inactive) | 32.5 µM (inactive) | 17.3 µM (inactive) | 26.1 µM (inactive) | 32.1 µM (inactive) |  | 73.5 µM (inactive) | 25.9 µM (inactive)
CCOC(=O)C1c2[nH]c3ccccc3c2CCN1C(=O)c1ccc(OC)o1 (configuration not stated) | > 10 µM (inactive) |  | > 10 µM (inactive) | > 10 µM (inactive) | > 10 µM (inactive) |  | > 10 | > 10 µM (inactive) | > 10 µM (inactive) | > 10 µM (inactive) | > 10 µM (inactive) | > 10 µM (inactive) | > 10 µM (inactive) | > 10 µM (inactive) | > 10 µM (inactive) | > 10 µM (inactive) | > 10 µM (inactive) | > 10 µM (inactive) | > 10 µM (inactive) | > 10 µM (inactive)
COc1c(O)cc(O)c2c(=O)cc(-c3ccccc3)oc12 [WOGONIN] |  | 55.2 µM (inactive) | 48.6 µM (inactive) | 64.3 µM (inactive) | 23.6 µM (inactive) | 24.3 µM (inactive) | 35.1 | 21.7 µM (inactive) | 51.9 µM (inactive) | 18.7 µM (inactive) | 40.9 µM (inactive) | 26.2 µM (inactive) | 51.1 µM (inactive) | 37.9 µM (inactive) | 42.5 µM (inactive) | 43.7 µM (inactive) | 54.1 µM (inactive) |  | 21.5 µM (inactive) | 22.1 µM (inactive)
CC(C(O)c1ccccc1)C(O)(C(F)(F)F)C(F)(F)F (configuration not stated) | > 100 µM (inactive) |  | > 100 µM (inactive) | > 100 µM (inactive) | > 100 µM (inactive) | > 100 µM (inactive) | > 100 | > 100 µM (inactive) | > 100 µM (inactive) | > 100 µM (inactive) | 69.7 µM (inactive) | > 100 µM (inactive) | > 100 µM (inactive) | > 100 µM (inactive) | > 100 µM (inactive) | > 100 µM (inactive) | > 100 µM (inactive) | > 100 µM (inactive) | > 100 µM (inactive) | > 100 µM (inactive)
COc1cc(C2c3cc4c(cc3OC(NCCO)C2C)OCO4)cc(OC)c1O (configuration not stated) |  | 9.53 µM (inactive) | 19.2 µM (inactive) | 21.2 µM (inactive) | 9.79 µM (inactive) | 5.06 µM (inactive) | 3.44 |  | 7.11 µM (inactive) |  | 49.3 µM (inactive) |  | 8.79 µM (inactive) | 39.6 µM (inactive) | 13.9 µM (inactive) | 4.79 µM (inactive) | 5.53 µM (inactive) | 18.2 µM (inactive) |  | 6.12 µM (inactive)
CN1C(=O)C(O)C[C@@H]1c1ccc(F)cc1 (some centres not stated) |  | > 100 µM (inactive) | > 100 µM (inactive) | > 100 µM (inactive) | > 100 µM (inactive) | > 100 µM (inactive) | > 100 | > 100 µM (inactive) | > 100 µM (inactive) |  | > 100 µM (inactive) |  | > 100 µM (inactive) |  | > 100 µM (inactive) | > 100 µM (inactive) |  | > 100 µM (inactive) | > 100 µM (inactive) | > 100 µM (inactive)
Cc1cc(C#N)c(Nc2c(C)cccc2[N+](=O)[O-])s1 | 66.7 µM (inactive) | 24.3 µM (inactive) | 36.9 µM (inactive) | > 100 µM (inactive) | 36.2 µM (inactive) | 73.8 µM (inactive) | 50 | 25.4 µM (inactive) |  |  | > 100 µM (inactive) | 76.4 µM (inactive) | 17.3 µM (inactive) | 28 µM (inactive) | 43.2 µM (inactive) |  | > 100 µM (inactive) | 12.4 µM (inactive) |  | 49.7 µM (inactive)
Cc1ccc(S(=O)(=O)NC(=O)Nc2ccc(C(=O)O)cc2)cc1 |  | > 100 µM (inactive) |  | > 100 µM (inactive) | > 100 µM (inactive) | > 100 µM (inactive) | > 100 | > 100 µM (inactive) | > 100 µM (inactive) | > 100 µM (inactive) |  | > 100 µM (inactive) | > 100 µM (inactive) | > 100 µM (inactive) | > 100 µM (inactive) | > 100 µM (inactive) | > 100 µM (inactive) | > 100 µM (inactive) | > 100 µM (inactive) | 
